The source made the active and inactive calls. The calls are words filed in the database; no cut-off is given here.
Columns and labels:
[1] = biological target: T1, Ubiquitin-conjugating enzyme E2 N (Homo sapiens) (UniProt P61088); assay: Inhibition of Ubc13-[…] interaction by ELISA
T1 sequence (whole entry): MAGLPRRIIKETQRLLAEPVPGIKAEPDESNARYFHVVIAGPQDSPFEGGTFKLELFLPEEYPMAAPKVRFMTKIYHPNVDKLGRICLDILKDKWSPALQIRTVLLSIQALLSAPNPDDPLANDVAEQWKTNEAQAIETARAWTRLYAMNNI

[2] = biological target: Ubiquitin-conjugating enzyme E2 N/Ubiquitin-conjugating enzyme E2 variant 1 (Homo sapiens, UniProt P61088+Q13404); assay: (§1) Inhibition of human Ubc13-Uev1A interaction expressed in Escherichia BL21 after 15 mins by ELISA
[3] = biological target: Ubiquitin-conjugating enzyme E2 N/Ubiquitin-conjugating enzyme E2 variant 1 (Homo sapiens) (UniProt Q13404+P61088); assay: as §1

| SMILES | Activity [1] | IC50 [2] | Activity [3] |
| --- | --- | --- | --- |
| C[C@@H](N)[C@@H](O)C/C=C\C/C=C\C/C=C\C/C=C\C/C=C\C/C=C\CCCCCC[C@H](O)[C@@H](C)N [LEUCETTAMOL A] | inactive | 106 µM | – |
| C[C@@H](N)[C@@H](O)CCCCCCCCCCCCCCCCCCCCCCCC[C@H](O)[C@@H](C)N | – | 8.25 µM | – |
| CC(=O)N[C@H](C)[C@H](C/C=C\C/C=C\C/C=C\C/C=C\C/C=C\C/C=C\CCCCCC[C@H](OC(C)=O)[C@@H](C)NC(C)=O)OC(C)=O | – | – | inactive |

Source: ChEMBL document CHEMBL1152207, “Leucettamol A: a new inhibitor of Ubc13-Uev1A interaction isolated from a marine sponge, Leucetta aff. microrhaphis” (Bioorg Med Chem Lett, 2008)
